Measured values as given in patent US20240228659A1, “NEW METHOD TO IMPROVE NK CELLS CYTOTOXICITY” (INSERM (INSTITUT NATIONAL DE LA SANTÉ ET DE LA RECHERCHE …, priority 2021, published 2024).

Legend:
Type in all cases: in vivo, mouse
PD-L1 = PD-L1 tumor cell surface expression, flow cytometry of dissociated liver metastasis; conditions: FIG. 2B; residual liver metastasis; untreated mice 31.3±7.19%
Method: FIG. 2. Effect of retinoic acid alone or in combination with 8B6 therapy on O-acetyl-GD2 and PD-L1 expression in vivo. Tumor cells harvested from the indicated group were stained with either OAcGD2-specific mAb (A) or PD-L1-specific mAb (B). (A) Flow cytometry analysis was performed with single cell suspension obtained from the liver metastasis harvested from mice in FIG. 1 to assess the OAcGD2 expression, as indicated. […] The level of OAcGD2 expression remains stable after treatments (ns, not significant; p>0.5). (B) Single cell suspension from (A) were also tested for PD-L1 tumor cell surface expression, as indicated. The left panel indicates the percentage of PD-L1 positive tumor cells. […]
(§1) For flow cytometry analysis, cells were first incubated with a mAb specific for mouse CD16/CD32 to prevent nonspecific binding of primary antibodies against FcγR, and then, were labeled with specific conjugated mAbs. […] Quantification of total cell numbers by flow cytometry was performed done using fluorescent beads (C36950, Thermo Fisher, Waltham, MA, USA). Flow cytometric analysis were performed using an BD FACSCanto II (BD Bioscience) and data were analyzed using FlowJo software (Flowjo LLC, Oregon, OR, USA). The fold increase of tumor NK cell infiltration was calculated by dividing the number of NK cell infiltrated of each condition by the mean of the number of NK cell.

NXS2 cells = assay: murine NXS2 neuroblastoma experimental liver metastasis model in A/J mice; conditions: FIG. 1B; 8 mice/group; day 27 after i.v. NXS2 inoculation; 8B6 25 μg i.v. twice weekly x3 weeks; 13-cis-RA 10 mg/kg per os
Method: FIG. 1. 13-cis-Retinoic acid enhances anti-neuroblastoma activity of anti-O-acetylated GD2 ganglioside in vivo. (A) Mice (8 animal/group) were inoculated with 2.5×10^5 NXS2 cells by i.v. injections on day 0. Antibody 8B6 treatment was performed on days 3, 7, 10, 14, 17, and 21 (cumulative dose=150 μg). 13-cis-retinoic acid treatment was given at 10 mg/kg, per os, five times weekly, day 17 to 21. Mice were euthanized 27 days post-tumor cell inoculation. (B) Anti-tumor efficacy was evaluated by determining the number of liver metastasis. Mean liver metastasis number±SEM of each treatment group, as depicted (** p<0.01; Mann-Whitney test). (C) The mice body weight was recorded for each treatment group, as indicated. Mean weight (mean±SEM, n=8) of mice on day 0 was defined as 100% weight. Weight in each group remained stable for the period of the treatment.
FIG. 4. […] (B) Anti-tumor efficacy was evaluated by determining the liver metastasis on fresh specimen. […] (C) The mice body weight was recorded for each treatment group, as indicated. […]
The anti-neuroblastoma efficacy of mAb 8B6 and chemotherapeutic treatments was determined in the murine NXS2 neuroblastoma experimental liver metastasis model in A/J mice, previously described (28). […] Mice were euthanized on day 27 post-tumor challenge, and anti-tumor efficacy was evaluated by determining the number of liver metastasis.

CD45+NKp46+CD3− NK cells = assay: tumor NK cell infiltration, flow cytometry; conditions: FIG. 3B; PBS control 0.88±0.2%
Text: FIG. 3. 13-cis-Retinoic acid combined with mAb 8B6 increases PD-1+NK cell tumor infiltration. (A) Dot plots histograms showing the gating strategy used for flow cytometric identification of CD45+NKP46+CD3− NK cells in tumor cells. (B) Fold increase of total count of NK cells in tumor cells were achieved by flow cytometry of cells gated, as indicated. […] (C) Percentage of PD-1+NK cells in tumor cells from the indicated group.
Liver metastasis were dissociated with the mouse tumor dissociation kit and the gentle MACS dissociator (Miltenyi) according to the manufacturer's instructions. Single cell suspensions were obtained by passing through a 70 μm pore-size cell MACS SmartStrainer (Miltenyi). […]
as §1

SMILES: CC1=C(/C=C/C(C)=C/C=C/C(C)=C\C(=O)O)C(C)(C)CCC1 [13-cis-RA, 13-cis-retinoic acid]
- percentage of PD-L1+ tumor cells (PD-L1): 39.45±9.76%
- number of liver metastasis (mean±SEM) (NXS2 cells): 14.40±0.98
- intratumoral CD45+NKp46+CD3− NK cells (CD45+NKp46+CD3− NK cells): 2.49±0.29%
